{"source": "patent US20200197385A1", "about": "“THERAPEUTIC AGENT FOR CANCER CONTAINING AXL INHIBITOR AS ACTIVE INGREDIENT” (ONO PHARMACEUTICAL CO., LTD., priority 2017, published 2020)", "key": {"[1]": {"system": "human acute myeloid leukemia cell line CMK-11-5", "test": "In vitro combined use test, Cell Counting Kit-8", "format": "cell-based", "conditions": "72 hours", "method": "A human acute myeloid leukemia cell line CMK-11-5 was prepared in an RPMI medium containing 10% FBS (10% FBS-RPMI medium) at about 30000 cells/mL, and seeded in a 96 well plate at 50 μL/well. To this, 10% FBS-RPMI medium containing ABBV-075 having 4 times higher concentration than the final concentration was added at 25 μL/well. Furthermore, 10% FBS-RPMI medium containing the compound A having 4 times higher concentration than the final concentration was added at 25 μL/well (final volume: 100 μL/well DMSO concentration: 0.2%). The plate was incubated at 37° C. in humidified air including 5% CO2 for 72 hours. After culturing, absorbance at 450 nm of a formazan product, proportional to the number of living cells, was measured using Cell Counting Kit-8. Percentage (%) of absorbance at 450 nm of each compound-treated group with respect to absorbance at 450 nm of the vehicle group was calculated."}, "[2]": {"system": "mouse pancreatic cancer cell line Pan02 orthotopic implantation model", "test": "Antitumor action, orthotopic transplantation model, survival", "format": "in vivo", "conditions": "Pan02 orthotopic implantation mice; compound A 20 mg/kg/day via the diet; gemcitabine 60 mg/kg i.p. twice a week; Day 0 to Day 95", "method": "For the compound A, mouse feed CRF-1 containing 0.013% compound A was manufactured by Oriental Yeast Co., Ltd. so as to be administered in 20 mg/kg/day as administration via the diet. Gemcitabine was obtained from Wako Pure Chemical Industries, Ltd. C57/BL6 mouse pancreatic cancer cell line Pan02 was transplanted into the pancreas of the same type syngeneic mice (C57/BL6, female, 6-week old (Charles River Laboratories Japan, Inc.)) to produce Pan02 orthotopic implantation mice. On day 7 after transplantation, based on the body weight, the mice were assigned to four groups, i.e., a vehicle group, a gemcitabine group, compound A group, a combined use group of gemcitabine+compound A, and the compound A (each n=8 to 9). The day on which group assignment was carried out was defined as Day 0. To the vehicle group and the compound A group, PBS (10 mL/kg, twice a week) was intraperitoneally administered. To the gemcitabine group and a combined use group of gemcitabine+compound A, gemcitabine (60 mg/10 mL/kg, twice a week) was administered by intraperitoneal administration. To the compound A group and the combined use group of gemcitabine+compound A, CRF-1 containing 0.013% compound A was fed from Day 0. From Day 0 to Day 95, the survival time of each mouse in each group was evaluated. […]"}, "[3]": {"system": "human acute lymphatic leukemia cell line CCRF-HSB-2", "test": "In vitro combined use test, Cell Titer-Glo", "format": "cell-based", "conditions": "72 hours", "method": "A human acute lymphatic leukemia cell line CCRF-HSB-2 was prepared in an IMDM medium containing 10% FBS (10% FBS-IMDM medium) at about 200000 cells/mL, and seeded in a 96 well plate at 50 μL/well. […] The plate was incubated at 37° C. in humidified air including 5% CO2 for 72 hours. After culturing, relative luminescence unit (RLU), proportional to cellular endogenous ATP amount, was measured by Cell Titer-Glo Luminescent Cell Viability Assay (registered trademark). Percentage (%) of RLU of each compound-treated group relative to RLU of the vehicle group was measured."}, "[4]": {"system": "leukemia cells in bone marrow derived from patient with acute myeloid leukemia", "test": "Proliferation test (CFDA-SE), bone marrow sample of acute myeloid leukemia patient, compound A combined with anticancer drugs", "format": "cell-based, human", "conditions": "96 hours, Ci<1 synergistic action", "method": "(§1) Initial evaluation: Bone marrow samples were obtained from an adult acute myeloid leukemia patient. […] Furthermore, to evaluate the initial survival rate of cells, Annexin V was added to the above-mentioned combination of MAb.\nProliferation test: Proliferation was measured using a CFDA-SE coloring agent. A coloring agent which had been prepared in advance was placed in 15-mL tube including bone marrow enough to obtain about 6000 cells/well of living leukemia cells. Thereafter, they were diluted with the medium such that the total volume became 1 mL. After the resultant product was mixed well by vortex, the mixture was incubated on a rotator at room temperature with light shielded for 10 minutes. Then, the tube was filled with cool RPMI1640 including 10% FBS (medium 2), and incubated on ice for 5 minutes to stop the reaction. Thereafter, the cells were washed with the medium 2 twice. For the final re-suspension before plating and incubation, the medium 1 replenished with a cytokine cocktail was used. […] The plate containing the sample was incubated at 37° C. in humidified air including 5% CO2 for 96 hours. In order to prepare a sample for analysis, erythrocytes were lysed after completion of incubation, and then, the sample was stained with the best combination of Mab and Annexin V to identify the leukemia cells in the sample. Finally, the plate was analyzed by ExviTech (registered trademark) platform.\nData analysis: Synergistic analysis was carried out by calculating Combination Index (Ci) as described in Cancer Research, Vol. 70, No. 2, pp. 440-446, 2010. […] Note here that the meaning of the Ci value is regarded as follows.\n(§2) Ci<1: synergistic action, Ci=1: additive action, Ci>1: antagonistic action"}, "[5]": {"system": "leukemia cells in bone marrow derived from patient with acute myeloid leukemia", "test": "Reduction test, bone marrow sample of acute myeloid leukemia patient, compound A combined with anticancer drugs", "format": "cell-based, human", "conditions": "96 hours, Ci<1 synergistic action", "method": "as §1\nThe plate containing the sample was incubated at 37° C. in humidified air including 5% CO2 for 96 hours. In order to prepare a sample for analysis, erythrocytes were lysed after completion of incubation, and then, the sample was stained with the best combination of Mab and Annexin V to identify the leukemia cells in the sample. Finally, the plate was analyzed by ExviTech (registered trademark) platform.\nNote here that the meaning of the Ci value is regarded as follows.\nas §2"}}}
{"smiles": "CCS(=O)(=O)Nc1ccc(Oc2ccc(F)cc2F)c(-c2cn(C)c(=O)c3[nH]ccc23)c1", "note": "[ABBV-075]", "values": [{"measurement": "absorbance at 450 nm in combined use with compound A compared with single use of each agent", "setting": "[1]", "value": "lowered"}]}
{"smiles": "COc1cc2nccc(Oc3ccc(NC(=O)c4cc5c(n(-c6ccccc6)c4=O)CCCC5=O)nc3)c2cc1OC", "note": "[Compound A, N-{5-[(6,7-dimethoxy-4-quinolinyl)oxy]-2-pyridinyl}-2,5-dioxo-1-phenyl-1,2,5,6,7,8-hexahydro-3-quinolinecarboxamide]", "values": [{"measurement": "Median value of survival days", "setting": "[2]", "value": 54, "unit": "days"}]}
{"smiles": "Nc1ccn([C@@H]2O[C@H](CO)[C@@H](O)[C@@H]2O)c(=O)n1", "note": "[Cytarabine, cytarabine]", "values": [{"measurement": "Ci median value in combined use with compound A", "setting": "[3]", "value": 0.696}, {"measurement": "RLU in combined use with compound A compared with single use of each agent", "setting": "[3]", "value": "lowered"}]}
{"smiles": "COc1cccc2c1C(=O)c1c(O)c3c(c(O)c1C2=O)C[C@@](O)(C(C)=O)C[C@@H]3O[C@H]1C[C@H](N)[C@H](O)[C@H](C)O1", "note": "[Daunorubicin, daunorubicin]", "values": [{"measurement": "Ci median value in combined use with compound A", "setting": "[3]", "value": 0.936}, {"measurement": "RLU in combined use with compound A compared with single use of each agent", "setting": "[3]", "value": "lowered"}]}
{"smiles": "C[C@@H]1C[C@H]2[C@@H]3CCC4=CC(=O)C=C[C@]4(C)[C@@]3(F)[C@@H](O)C[C@]2(C)[C@@]1(O)C(=O)CO", "note": "[Dexamethasone, dexamethasone]", "values": [{"measurement": "Ci median value in combined use with compound A", "setting": "[3]", "value": 0.589}]}
{"smiles": "Nc1ccn([C@@H]2O[C@H](CO)[C@@H](O)C2(F)F)c(=O)n1", "note": "[Gemcitabine, gemcitabine]", "values": [{"measurement": "Median value of survival days", "setting": "[2]", "value": 67, "unit": "days"}]}
{"smiles": "CCc1nc(C(N)=O)c(Nc2ccc(N3CCC(N4CCN(C)CC4)CC3)c(OC)c2)nc1NC1CCOCC1", "note": "[Gilteritinib, gilteritinib]", "values": [{"measurement": "Ci median value in combined use with compound A", "setting": "[4]", "value": 0.495}]}
{"smiles": "COc1cc(C(=O)O)ccc1NC(=O)[C@@H]1N[C@@H](CC(C)(C)C)[C@](C#N)(c2ccc(Cl)cc2F)[C@H]1c1cccc(Cl)c1F", "note": "[Idasanutlin, idasanutlin]", "values": [{"measurement": "Ci median value in combined use with compound A", "setting": "[5]", "value": 0.719}]}
{"smiles": "CO[C@@H]1[C@H](N(C)C(=O)c2ccccc2)C[C@H]2O[C@]1(C)n1c3ccccc3c3c4c(c5c6ccccc6n2c5c31)C(=O)NC4", "note": "[Midostaurin, midostaurin]", "values": [{"measurement": "Ci median value in combined use with compound A", "setting": "[4]", "value": 0.673}]}
{"smiles": "CCCCc1nc2cc(/C=C/C(=O)NO)ccc2n1CCN(CC)CC", "note": "[Plasinostat, plasinostat]", "values": [{"measurement": "Ci median value in combined use with compound A", "setting": "[5]", "value": 0.440}]}
{"smiles": "CC[C@@H]1C(=O)N(C)c2cnc(Nc3ccc(C(=O)N[C@H]4CC[C@H](N5CCN(CC6CC6)CC5)CC4)cc3OC)nc2N1C(C)C", "note": "[Volasertib, volasertib]", "values": [{"measurement": "Ci median value in combined use with compound A", "setting": "[4]", "value": 0.830}]}
